The values that follow come from paper PMC10208956, “Microbial peptides activate tumour-infiltrating lymphocytes in glioblastoma” (Nature, 2023).

One experiment relates to TCC2D3. The following applies: 3 h.
For experiment [1], the system named is sorted CD4+ PE and FITC TCRVβ+ TILs. As to the kind of experiment: Proliferation of TCRBV-sorted CD4+ TILs (without TCRBV6.1 and TCRBV6.2). Type of experiment: cell-based, human. The following applies: sheet 6b. An excerpt:
TILs expressing specific TCRBVs were isolated from bulk TILs using a panel of 22 fluorescently labelled TCRBV antibodies that detect 27 different TCRBVs. Twelve TCRBV antibodies were labelled with PE and 10 with FITC (Beckman Coulter). […] After another wash, cells were stained with CD4 (1:100) (APC anti-human CD4, eBioscience), CD8 (1:100) (Pacific blue anti-human CD8, BioLegend), TCRBV-PE (1:25) (Beckman Coulter) and TCRBV-FITC (1:25) (Beckman Coulter) antibodies (Supplementary Table 12) for 30 min. Finally, cells were sorted, seeded at 5 × 10^4 cells per well in T cell medium without h-IL-2 and rested for 1 day before stimulation with 2 × 10^5 cells per well of irradiated autologous PBMCs (45 Gy) and peptide (10 µM).
Two populations of CD4^+ PE-TCRVβ^+ and CD4^+ FITC-TCRVβ^+ were sorted and later mixed together. […] Specific amount of each cytokine/chemokine (pg/ml) was calculated by subtracting the cytokines in the negative control cultures (no peptide control). Source data

In experiment [2] the test system is bacteria/microbiota-reactive CFSEdim CD4+ TILs. As to the kind of experiment: Proliferation of expanded CFSEdim CD4+ TILs that responded to the bacteria/microbiota peptide pool. It is filed as cell-based, human. The following applies: 5 days; 4 replicate wells; Fig. 4d.
The next experiment relates to TCC88. The following applies: BLS-DRB3*02:02 as APCs; 3 days; SI ≥ 2 positive.
Experiment [3] has as its system bacteria/microbiota-reactive peripheral CD4+ T cells. As to the kind of experiment: Cytokine/chemokine secretion of selected peripheral CD4+ T cells in response to LRP6. Further details: IL-1a / IL-1ß / IL-2 / IL-3 / IL-4 / IL-5 / IL-6 / IL-7 / IL-10 / IL-13 / IL-15 / IL-17A / IL-33 / TNF-a: unit not given here. It is filed as cell-based, human.
The subject of experiment [4] is CD45RA− peripheral T cells. As to the kind of experiment: Cytokine/chemokine secretion of unselected peripheral CD4+ T cells in response to LRP6. Further details: IL-1a / IL-1ß / IL-2 / IL-3 / IL-4 / IL-5 / IL-6 / IL-7 / IL-10 / IL-13 / IL-15 / IL-17A / IL-33 / TNF-a: unit not given here. The following applies: Unselected CD45RA- PBMCs, sheet 6c (right panel). Type of experiment: cell-based, human.

The subject of experiment [5] is IPdBP-pre-stimulated peripheral memory CD4+ T cells. As to the kind of experiment: Cytokine/chemokine response of IPdBP-pre-stimulated peripheral memory CD4+ T cells. Set-up: IL-1α / IL-1β / IL-2 / IL-3 / IL-4 / IL-5 / IL-6 / IL-7 / IL-10 / IL-13 / IL-15 / IL-17A / IL-33 / TNF-α: unit not given here. It is filed as cell-based, human.
The subject of the next experiment is TCC75. The experiment is described as follows: Cytokine/chemokine secretion of TCC75. The following applies: 3 days; Extended Data Fig. 5e. Type of experiment: cell-based, human.
The mark [6] stands for this setting: Selected peripheral CD4+, sheet 6c (right panel).
Setting [7] is: secretion by IPdBP-pre-stimulated peripheral memory CD4+ T cells.

In the case of Ac-AVVTQPDK-NH2 [Pep-bac9], the “SI: TCC2D3” value with TCC2D3 worked out at 2.5.
Turning to Ac-KEDMSVPLIKSIRK-NH2 [Pep-bac10], the “SI: TCC2D3” value with TCC2D3 is recorded as 2.2.
For the substance “LLDFNHSMVN [HGM26, human gut microbiota peptide]”, the “Proliferation (SI) of sorted CD4+ TILs” value is on record as 1.889 in experiment [1] (replicate 1), 1.31 in experiment [1] (replicate 2) and 1.491 in experiment [1] (replicate 3).
With “REFTKATNVRLRF [LAMA5, vaccine pool peptide from laminin subunit α5]”, the “recognition by CD4+ TILs pre-stimulated with the bacteria/microbiota peptide pool, by proliferation and/or GM-CSF secretion (in words)” value in experiment [2] was “recognized”.
On to Ac-SNGDLDAIVVARAGLA-NH2 [Pep-bac16], for which the “SI: TCC2D3” value in the experiment with TCC2D3 was 2.2.
In the case of Ac-VFDFNHSAIK-NH2 [HGM62], the “Proliferation (SI) of sorted CD4+ TILs” value in experiment [1] (replicate 1) is 1.423; in experiment [1] (replicate 2), 1.043; in experiment [1] (replicate 3), 2.568.
As to “LWEFNNVSLA [HB4, UniProt bacteria database peptide]”, the results for the “Proliferation (SI) of sorted CD4+ TILs” value in experiment [1] (replicate 1), in experiment [1] (replicate 2) and in experiment [1] (replicate 3) were 1.585, 1.003 and 1.832, respectively.
Turning to LVDFFHSSAI [HGM32], the “recognition by TCC88, proliferation (in words)” value with TCC88 was “stimulatory”.
For “LYEFNHSPGF [HGM7, human gut microbiota peptide]”, the figures for the “Proliferation (SI) of sorted CD4+ TILs” value in experiment [1] (replicate 1), in experiment [1] (replicate 2) and in experiment [1] (replicate 3) were 2.804, 1.758 and 3.368, respectively.
For HPFALTLFEDILY [LRP6], the “recognition by CD4+ TILs pre-stimulated with the bacteria/microbiota peptide pool, by proliferation and/or GM-CSF secretion (in words)” value in experiment [2] was “recognized”. In experiment [3] (setting [6]), this substance registered a CCL2/MCP-1 of 4526.33, a CCL3/MIP-1a of 3125.42, a CCL4/MIP-1ß of 4031.29 and a CCL11/Eotaxin of 4.67. Also, in experiment [3] (setting [6]), the CCL19/MIP-3ß is reported as 6.3, the CCL20/MIP-3a is 6.57, the “CD40 Ligand” value is 1738.81 and the CXCL1/GROa was found to be 373.82. In experiment [3] (setting [6]), the CXCL2/GROß is recorded as 350.46, the CXCL8/IL-8 was found to be 2606.08, the CXCL10/IP-10 was 147.39 and the “Flt-3 Ligand” value amounted to 28.81. Moreover, in experiment [3] (setting [6]), the GM-CSF amounted to 1627.51, the “Granzyme B” value was 2119.45, the IFN-a is on record as 1.01 and the IFN-γ is on record as 159.02. In experiment [3] (setting [6]), this substance displayed an IL-1a of 15.17, an IL-1ra of 3794.38, an IL-1ß of 23.43 and an IL-2 of 10.94. In experiment [3] (setting [6]), this substance came in with an IL-3 of 107.37, an IL-4 of 4.49, an IL-5 of 283.76 and an IL-6 of 167.44. Moreover, in experiment [3] (setting [6]), the IL-7 is on record as 0.7, the IL-10 is 475.26, the IL-12p70 amounted to 16.63 and the IL-13 came to 400.29. In experiment [3] (setting [6]), this substance displayed an IL-15 of 2.76, an IL-17A of 0, an IL-17E/IL-25 of 0 and an IL-33 of 5.21. In experiment [3] (setting [6]), the RANTES amounted to 798.34 and the TNF-a is 1408.41. Further, in experiment [3] (compared with the unselected cells, Extended Data Fig. 6c right), the “cytokine and chemokine production of selected peripheral CD4+ T cells (in words)” value was “produced various cytokines and chemokines”. In experiment [4], the CCL2/MCP-1 amounted to 0, the CCL3/MIP-1a is on record as 38350.7, the CCL4/MIP-1ß is on record as 1401.95 and the CCL11/Eotaxin is on record as 0. In experiment [4], the CCL19/MIP-3ß was 0, the CCL20/MIP-3a is on record as 6.73, the “CD40 Ligand” value turned out to be 1116.41 and the CXCL1/GROa is given as 804.34. In experiment [4], the CXCL2/GROß was 0, the CXCL8/IL-8 is 0, the CXCL10/IP-10 was found to be 0 and the “Flt-3 Ligand” value is 15.31. Also, in experiment [4], the GM-CSF is 488.27, the “Granzyme B” value stood at 0, the IFN-a was found to be 1.18 and the IFN-γ is listed as 0. Moreover, in experiment [4], the IL-1a is 104.35, the IL-1ra worked out at 0, the IL-1ß was 600.74 and the IL-2 turned out to be 0. Further, in experiment [4], the IL-3 is 1.65, the IL-4 came to 0, the IL-5 stood at 0 and the IL-6 was 20465.9. Moreover, in experiment [4], the IL-7 is reported as 0.54, the IL-10 came out at 27.41, the IL-12p70 was found to be 9.74 and the IL-13 came to 0. In experiment [4], this substance yielded an IL-15 of 1.25, an IL-17A of 0, an IL-17E/IL-25 of 0 and an IL-33 of 7.76. In experiment [4], this substance returned an RANTES of 0 and a TNF-a of 67.2. Also, in experiment [5] (Extended Data Fig. 7c), the “cytokine and chemokine profile of immunopeptidome-reactive peripheral CD4+ T cells (in words)” value was “secreted not only GM-CSF but also several other pro-inflammatory cytokines including IFNγ, TNF and granzyme B”. For the same substance, in experiment [5] (setting [7]), the CCL2/MCP-1 is 0, the CCL3/MIP-1α came out at 3979.57, the CCL4/MIP-1β was 19527 and the CCL11/Eotaxin is 3.84. Further, in experiment [5] (setting [7]), the CCL19/MIP-3β was determined as 12.07, the CCL20/MIP-3α came out at 17.43, the “CD40 Ligand” value is listed as 4129.61 and the CXCL1/GROα is reported as 0. Also, in experiment [5] (setting [7]), the CXCL2/GROβ came to 123.27, the CXCL8/IL-8 came out at 3466.89, the CXCL10/IP-10 is listed as 353.48 and the “Flt-3 Ligand” value is reported as 131.58. Further, in experiment [5] (setting [7]), the GM-CSF came out at 8661.95, the “Granzyme B” value is on record as 7766.97, the IFN-α came out at 8.01 and the IFN-γ was found to be 1163.95. In experiment [5] (setting [7]), this substance displayed an IL-1rα of 0, an IL-1α of 19.6, an IL-1β of 20.52 and an IL-2 of 11.3. In experiment [5] (setting [7]), this substance registered an IL-3 of 158.99, an IL-4 of 7.36, an IL-5 of 1023.08 and an IL-6 of 217.73. In experiment [5] (setting [7]), this substance yielded an IL-7 of 2.53, an IL-10 of 4192.28, an IL-12p70 of 24.59 and an IL-13 of 3507.83. In experiment [5] (setting [7]), this substance yielded an IL-15 of 4.26, an IL-17A of 4.67, an IL-17E/IL-25 of 0 and an IL-33 of 22.2. In experiment [5] (setting [7]), this substance gave an RANTES of 10050.3 and a TNF-α of 3505.52.
With Ac-VWEFNHSLHP-NH2 [HGM27], in the experiment with TCC75, the “cytokine and chemokine profile of TCC75 (in words)” value was “secretes pro-inflammatory cytokines”. The “Proliferation (SI) of sorted CD4+ TILs” value in experiment [1] (replicate 1) was determined as 2.099; in experiment [1] (replicate 2), 2.919; in experiment [1] (replicate 3), 2.416.
